This is an account of results in publication PMC11610669, “A Spectroscopic Study on the Amyloid‐β Interaction with Clicked Peptide‐Porphyrin Conjugates: a Vision Toward the Detection of Aβ Peptides in Aqueous Solution” (Chembiochem, 2024).

Data set [1] addresses T1, Aβ42 (Homo sapiens, UniProt P05067). Nature of the data set: bis-Ans fluorescence anti-fibrillogenic assay. Particulars: Aβ42 20 μM, 1:1, 60 μM Bis-Ans solution, phosphate buffer pH 7.4, 37 °C, 65 h, ex/em 385/510 nm, triplicate. In kind it is biochemical. From the text:
We also carried out fluorescence assays to evaluate the anti‐fibrillogenic ability of the porphyrin‐peptide conjugates. We used the bis‐Ans (4,4’‐Dianilino‐1,1’‐binaphtyl‐5,5’disulphonic acid) as a chromophore instead of the typical Th−T (Thioflavin‐T), to avoid any potential interference that might occur between the porphyrin and Th−T, in both the excitation and emission wavelength regions. The bis‐Ans probe is sensitive to Aβ fibril formation, and it specifically binds to solvent‐exposed hydrophobic surfaces leading to an increase in its fluorescence emission maximum at 510 nm, in our case.[47] The bis‐Ans fluorescence kinetics were recorded with Aβ42 (20 μM) alone or in the presence of the porphyrin‐peptide conjugates at a 1 : 1 molar ratio. The kinetic profiles of the porphyrin‐peptide conjugates in the absence of Aβ42 were also acquired for comparison (Figure 4S). […] The obtained fluorescence intensities were compared with the values obtained for Aβ42 alone.
Bis‐Ans fluorescence kinetics were measured on a Flash Thermo Varioskan spectrofluorometer with excitation and emission at 385 and 510 nm, respectively. Aβ42, alone or in the presence of the porphyrin‐peptide conjugates in a 1 : 1 molar ratio, was dissolved in 10 mM aq NaOH (30 μL). […] Readings were taken every 10 min, after weak shaking for 10 s. The fluorescence intensity was monitored for 65 h. […]

The test system of another data set is Aβ8–20. Nature of the data set: CD of conjugate with Aβ8–20 fragment. In kind it is binding. How it is done:
To better visualize how the induced signal increases as Aβ42 adopts the β‐sheet conformation, a comparative graph displaying the absolute value of the CD intensities at the maximum absorption wavelength for each derivative, either in the presence or absence of Aβ42 over the same time interval, is reported in the SI (Figure 7S). […] (Figure 8S panel a). […] We assume that the conjugate Zn‐Ph‐Pep conjugate could similarly interact with the Aβ8–20 fragment.
Spectra were recorded on a J‐810 spectrometer (Jasco, Japan) under a constant flow of N2 at room temperature. The CD measurements were performed in the wavelength regions (190–260 nm, 195–350 nm and 350–500 nm) using a 1 cm path length quartz cell. All aggregation kinetics were monitored up to 120 hours. The CD spectra were recorded for Aβ42 (5 μM and 20 μM) monomer in the absence or in the presence of porphyrin‐peptide conjugates (5 μM and 20 μM for the 1 : 1 molar ratios). Monomerized samples of Aβ42 (5 μM and 20 μM) were solubilized in 50 μL of NaOH 20 mM (2,5 %) and after were diluted with 1950 μL of 10 mM phosphate buffer at pH 7.4 pure or containing the solubilized conjugates.

The target in data set [2] is T1, Aβ42. Nature of the data set: Sensing: induced CD in porphyrin Soret region with Aβ42. The data set is classed as binding. As to conditions: Aβ42 20 μM, 1:1, 350–500 nm, 10 mM phosphate buffer pH 7.4. The protocol:
The Grating‐Coupled Interferometry (GCI) is a widely used analytical technique for characterizing intermolecular interactions. It allows quantitative measurements of both the affinity and the kinetics of the binding events. This high sensitivity label‐free method was exploited to measure the interactions of Aβ42 with Cu‐Ph‐Pep , Ph‐Pep , and Zn‐Ph‐Pep (Figure 5S). Control experiments with pristine MCPTPyP and the peptide GPGKLVFF ( Pep ) were carried out for comparison. The calculated association and dissociation kinetic constants (kon and koff, respectively) and the thermodynamic binding constant (KD), are summarized in Table 1. The obtained values indicate that all the conjugates show good affinities with Aβ42. It is also clear from Table 1 that the peptide moiety is fundamental for the molecular recognition of the Aβ42 peptide.[48] […] For the sake of comparison, the CD spectra of the porphyrin‐peptide conjugates at 20 μM were also recorded in the same experimental conditions, both in the far‐UV and Visible regions (Figure 6S).
Spectra were recorded on a J‐810 spectrometer (Jasco, Japan) under a constant flow of N2 at room temperature. […] All aggregation kinetics were monitored up to 120 hours. The CD spectra were recorded for Aβ42 (5 μM and 20 μM) monomer in the absence or in the presence of porphyrin‐peptide conjugates (5 μM and 20 μM for the 1 : 1 molar ratios). […]

Data set [3] addresses T1, Aβ42. Nature of the data set: UV-Vis of conjugates with equimolar Aβ42. The data set is classed as biochemical. Particulars: 5 μM conjugate, equimolar Aβ42, 10 mM phosphate buffer pH 7.4, 0, 24, 48 and 120 h. The protocol:
The UV‐Vis spectra of porphyrin‐peptide conjugates (5 μM) were recorded in the presence of an equimolar ration of Aβ42 monomers at 0, 24, 48 and 120 h (Figure 2S). […] Therefore, the interaction of the peptide‐porphyrin conjugates with Aβ was further studied using CD spectroscopy. The Aβ42 aggregation process was monitored either in the absence or in the presence of an equimolar amount of the conjugated peptides. A series of CD control experiments were preventively carried out to assess the propensity of the porphyrin‐peptide conjugates to adopt a β‐sheet conformation. The corresponding CD curves are shown in the supplementary material (Figure 3S). […] We then evaluated the ability of the porphyrin‐peptide conjugates to affect the Aβ42’s aggregation process. This was accomplished by running a series of CD experiments on the binary systems in the same experimental conditions as the control CD measurements. A 5 μM Aβ42 sample was used as a positive control of the aggregation process (Figure 3, panel a). In this case, the curve profiles indicate that at 0 h, Aβ42 is predominantly in the random coil conformation, as evidenced by the negative ellipticity around 200 nm. […] The typical dichroic profile characterized by a negative ellipticity at λ=222 nm and a positive band at λ=200 is indicative of this event (Figure 3, panel a).
Spectra were recorded on a Jasco V‐670 Spectrophotometer at room temperature. All measurements were performed in the 300–650 nm wavelength region, in a 10 mM phosphate buffer solution at pH 7.4 using a 1 cm path length quartz cell. The spectra of all the peptide‐porphyrin conjugates, either in the absence or in the presence of equimolar Aβ42, were acquired at 5 μM. In some cases, the same sample solution was used to run the CD spectra. The final concentrations of Aβ42 and peptide conjugates were 5 μM (1 : 1 molar ratio).

Entries after “also recorded” stand apart in the source; their conditions may differ.

T1 sequence (P05067 672-713 limits assumed): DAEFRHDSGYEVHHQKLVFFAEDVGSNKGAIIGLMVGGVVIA

Turning to `COC(=O)[C@H](Cc1cn(CCCC[C@H](NC(=O)CNC(C)=O)C(=O)N2CCC[C@H]2C(=O)NCC(=O)N[C@@H](CCCCN)C(=O)N[C@@H](CC(C)C)C(=O)N[C@H](C(=O)N[C@@H](Cc2ccccc2)C(=O)N[C@@H](Cc2ccccc2)C(N)=O)C(C)C)nn1)NC(=O)c1ccc(-c2c3nc(c(-c4cc[n+](C)cc4)c4ccc([nH]4)c(-c4cc[n+](C)cc4)c4nc(c(-c5cc[n+](C)cc5)c5ccc2[nH]5)C=C4)C=C3)cc1` [Zn‐Ph‐Pep], the “effect on Aβ42 fibril formation (bis-Ans fluorescence)” value with Aβ42 [1] is on record as “might support or even accelerate Aβ42’s fibril formation”. In addition, in the data set on Aβ8–20 (Far-UV CD), the “conformation of Aβ8–20/conjugate mixture” value is “significant amount of random coil conformation”. The “induced CD signal in visible region with Aβ8–20” value in the data set on Aβ8–20 (same experimental conditions as with Aβ42) is “no induced CD signal is clearly detectable”. For the same compound, the “induced CD signal in Soret region with Aβ42” value on Aβ42 [2] is on record as “induced dichroic signal; also recorded: generates a distinct CD signal”. In addition, on Aβ42 [3], the “UV-Vis spectral change in presence of Aβ42” value is reported as “may suggest a rapid formation of aggregated species”.
